These results are taken from ChEMBL document CHEMBL3882387, “Combination of selected analgesics and COX-II inhibitors” (2005).

What all share (format): functional
In assay [1] the test system is Rattus norvegicus. The experiment in a line: Analgesic activity in rat assessed as reduction in baking yeast suspension-induced hind paw oedema at 215 mg/kg, po pretreated for 1 hr followed by 46 mg/kg (1R,2R)-3-(3-dimethylamino-l-ethyl-2-methyl-propyl)-phenol; hydrochloride addition by Randall-selitto test relative to control. Further details: scale not given: the % may be the effect or the level left.

For assay [2], the system named is Rattus norvegicus. The experiment in a line: Analgesic activity in rat assessed as reduction in baking yeast suspension-induced hind paw oedema at 215 mg/kg, po pretreated for 1 hr followed by 31 mg/kg (1R,2R)-3-(3-dimethylamino-l-ethyl-2-methyl-propyl)-phenol; hydrochloride addition by Randall-selitto test relative to control. Further details: scale not given: the % may be the effect or the level left.

Assay [3] has as its system Rattus norvegicus. The experiment in a line: Analgesic activity in rat assessed as reduction in baking yeast suspension-induced hind paw oedema at 215 mg/kg, po co-administered with 31 mg/kg (1R,2R)-3-(3-dimethylamino-l-ethyl-2-methyl-propyl)-phenol; hydrochloride by Randall-selitto test relative to control. Also noted: scale not given: the % may be the effect or the level left.

Assay [4] deals with Rattus norvegicus. The experiment in a line: Analgesic activity in rat assessed as reduction in baking yeast suspension-induced hind paw oedema by measuring combination effect at 68.1 mg/kg, po coadministered with 215 mg/kg COX2 inhibitor celecoxib (celebrex) 1 hr prior to compound addition measured after 75 to 90 mins by Randall-selitto test relative to control. Further details: scale not given: the % may be the effect or the level left.

Assay [5] relates to Rattus norvegicus. The experiment in a line: Analgesic activity in rat assessed as reduction in baking yeast suspension-induced hind paw oedema by measuring combination effect at 68.1 mg/kg, po coadministered with 215 mg/kg COX2 inhibitor celecoxib (celebrex) 1 hr prior to compound addition measured after 15 to 75 mins by Randall-selitto test relative to control. Also noted: scale not given: the % may be the effect or the level left.

The test system of assay [6] is Rattus norvegicus. The experiment in a line: Analgesic activity in rat assessed as reduction in baking yeast suspension-induced hind paw oedema at 215 mg/kg, po pretreated for 1 hr followed by 68.1 mg/kg (1RS,3RS,6RS)-6-dimethylaminomethyl-1-(3-[methoxy-phenyl)-cyclohexane-1,3-diol;hydrochloride addition measured after 75 to 90 mins by Randall-selitto test relative to control. Also noted: scale not given: the % may be the effect or the level left.

Assay [7] deals with Rattus norvegicus. The experiment in a line: Analgesic activity in rat assessed as reduction in baking yeast suspension-induced hind paw oedema at 215 mg/kg, po pretreated for 1 hr followed by 68.1 mg/kg (1RS,3RS,6RS)-6-dimethylaminomethyl-1-(3-[methoxy-phenyl)-cyclohexane-1,3-diol;hydrochloride addition measured after 15 to 75 mins by Randall-selitto test relative to control. Further details: scale not given: the % may be the effect or the level left.

Assay [8] deals with Rattus norvegicus. The experiment in a line: Analgesic activity in rat assessed as reduction in baking yeast suspension-induced hind paw oedema at 215 mg/kg, po pretreated for 1 hr followed by 21.5 mg/kg (1S,2S)-3-(3-dimethylamino-l-ethyl-2-methyl-propyl)-phenol;hydrochloride addition by Randall-selitto test relative to control. Also noted: scale not given: the % may be the effect or the level left.

Assay [9] concerns Rattus norvegicus. The experiment in a line: Analgesic activity in rat assessed as reduction in baking yeast suspension-induced hind paw oedema at 215 mg/kg, po pretreated for 1 hr followed by 46.4 mg/kg ((1R,2R)-3-(2-dimethylaminomethyl-cyclohexyl)-phenol;1 hydrochloride addition by Randall-selitto test relative to control. Also noted: scale not given: the % may be the effect or the level left.

In assay [10] the test system is Rattus norvegicus. The experiment in a line: Analgesic activity in rat assessed as reduction in baking yeast suspension-induced hind paw oedema by measuring combination effect at 21.5 mg/kg, po co-administered with 215 mg/kg COX2 inhibitor celecoxib (celebrex) 1 hr prior to compound addition by Randall-selitto test relative to control. Further details: scale not given: the % may be the effect or the level left.

Assay [11] deals with Rattus norvegicus. The experiment in a line: Analgesic activity in rat assessed as reduction in baking yeast suspension-induced hind paw oedema at 31 mg/kg, po by measuring combination effect co-administered with 215 mg/kg COX2 inhibitor celecoxib by Randall-selitto test relative to control. Further details: scale not given: the % may be the effect or the level left.
The test system of assay [12] is Rattus norvegicus. The experiment in a line: Analgesic activity in rat assessed as reduction in baking yeast suspension-induced hind paw oedema by measuring combination effect at 31 mg/kg, po co-administered with 215 mg/kg COX2 inhibitor celecoxib (celebrex) by Randall-selitto test relative to control. Further details: scale not given: the % may be the effect or the level left.

Assay [13] concerns Rattus norvegicus. The experiment in a line: Analgesic activity in rat assessed as reduction in baking yeast suspension-induced hind paw oedema by measuring combination effect at 46 mg/kg, po coadministered with 215 mg/kg COX2 inhibitor rofecoxib (vioxx) 1 hr prior to compound addition by Randall-selitto test relative to control. Also noted: scale not given: the % may be the effect or the level left.

Assay [14] has as its system Rattus norvegicus. The experiment in a line: Analgesic activity in po dosed formalin-induced chronic pain rat model assessed as reduction in behavioural change by measuring combination ED50 co-administered with COX2 inhibitor celecoxib measured up to 60 mins by formalin test. Conditions: 1 h.
Assay [15] concerns Rattus norvegicus. The experiment in a line: Analgesic activity in rat assessed as reduction in baking yeast suspension-induced hind paw oedema at 31 mg/kg, po by measuring combination effect co-administered with 215 mg/kg COX2 inhibitor rofecoxib (vioxx) by Randall-selitto test relative to control. Also noted: scale not given: the % may be the effect or the level left.
Assay [16] relates to Rattus norvegicus. The experiment in a line: Analgesic activity in po dosed rat assessed as reduction in acetic acid-induced writhings by measuring combination ED50 co-administered with COX2 inhibitor rofecoxib pretreated for 30 mins followed by acetic acid challenge measured after 10 to 35 mins by writhing test. (Writhing tests count abdominal constrictions after an irritant is injected.)

Assay [17] relates to Rattus norvegicus. The experiment in a line: Analgesic activity in rat assessed as reduction in baking yeast suspension-induced hind paw oedema by measuring combination effect at 31 mg/kg, po coadministered with 215 mg/kg COX2 inhibitor rofecoxib (vioxx) 1 hr prior to compound addition by Randall-selitto test relative to control. Also noted: scale not given: the % may be the effect or the level left.

The subject of assay [18] is Rattus norvegicus. The experiment in a line: Analgesic activity in rat assessed as reduction in baking yeast suspension-induced hind paw oedema by measuring combination effect at 46 mg/kg, po co-administered with 215 mg/kg COX2 inhibitor celecoxib (celebrex) by Randall-selitto test relative to control. Also noted: scale not given: the % may be the effect or the level left.

In assay [19] the test system is Rattus norvegicus. The experiment in a line: Analgesic activity in rat assessed as reduction in baking yeast suspension-induced hind paw oedema by measuring combination effect at 46.4 mg/kg, po co-administered with 215 mg/kg COX2 inhibitor celecoxib (celebrex) 1 hr prior to compound addition by Randall-selitto test relative to control. Further details: scale not given: the % may be the effect or the level left.

Turning to `CS(=O)(=O)c1ccc(C2=C(c3ccccc3)C(=O)OC2)cc1` [ROFECOXIB], the Activity with Rattus norvegicus [1] turned out to be 13%; with Rattus norvegicus [2] it was 13%; in the assay on Rattus norvegicus [3], 11.2%.
On to `COc1cccc([C@@]2(O)C[C@H](O)CC[C@@H]2CN(C)C)c1.Cl` (racemic), for which the Activity in the assay with Rattus norvegicus [4] stood at 68.5%; with Rattus norvegicus [5], 109.3%.
Regarding `Cc1ccc(-c2cc(C(F)(F)F)nn2-c2ccc(S(N)(=O)=O)cc2)cc1` [CELECOXIB], the Activity with Rattus norvegicus [6] stood at 8%; in the assay on Rattus norvegicus [7], 16.7%; in the assay with Rattus norvegicus [8], 8.9%; in the assay with Rattus norvegicus [1] it was 17.3%; in the assay with Rattus norvegicus [2], 17.3%; in the assay with Rattus norvegicus [9] it was 8.9%.
As for `CC[C@H](c1cccc(O)c1)[C@H](C)CN(C)C.Cl`, in the assay on Rattus norvegicus [10], the Activity came to 96.4%.
One may read the ED50 as the dose at which the effect has come halfway, by size or by number of responders. On to `CC[C@@H](c1cccc(O)c1)[C@@H](C)CN(C)C.Cl` [TAPENTADOL HYDROCHLORIDE], for which the Activity in the assay on Rattus norvegicus [11] is on record as 29.6%; with Rattus norvegicus [12] it was 60.9%; in the assay with Rattus norvegicus [13], 59.8%; in the assay with Rattus norvegicus [15] it was 29.7%; in the assay with Rattus norvegicus [17] it was 45.7%; with Rattus norvegicus [18] it was 86.1%. In addition, the figures for the 50% effective dose (ED50) in the assay on Rattus norvegicus [14] and with Rattus norvegicus [16] were 60.6 mg/kg and 23.3 mg/kg, respectively.
Take `CN(C)C[C@@H]1CCCC[C@H]1c1cccc(O)c1.Cl`: the Activity in the assay on Rattus norvegicus [19] was found to be 84.1%.
